Experimental data reported in article PMC6629785, “Synthesis and Pharmacological Evaluation of a Novel Peptide Based on Anemonia sulcata BDS-I Toxin as a New KV3.4 Inhibitor Exerting a Neuroprotective Effect Against Amyloid-β Peptide” (Frontiers in Chemistry, 2019).
Ends that are not written are not given here.

Biological target: T1, KV3.4 channels (Homo sapiens, UniProt Q03721)
T1 construct: expressed in transfected cells; host or cells: CHO cells, transient transfection with Lipofectamine 2000; cDNAs provided by Professor Goldstein, University of Chicago
T1 sequence (Q03721 1-635): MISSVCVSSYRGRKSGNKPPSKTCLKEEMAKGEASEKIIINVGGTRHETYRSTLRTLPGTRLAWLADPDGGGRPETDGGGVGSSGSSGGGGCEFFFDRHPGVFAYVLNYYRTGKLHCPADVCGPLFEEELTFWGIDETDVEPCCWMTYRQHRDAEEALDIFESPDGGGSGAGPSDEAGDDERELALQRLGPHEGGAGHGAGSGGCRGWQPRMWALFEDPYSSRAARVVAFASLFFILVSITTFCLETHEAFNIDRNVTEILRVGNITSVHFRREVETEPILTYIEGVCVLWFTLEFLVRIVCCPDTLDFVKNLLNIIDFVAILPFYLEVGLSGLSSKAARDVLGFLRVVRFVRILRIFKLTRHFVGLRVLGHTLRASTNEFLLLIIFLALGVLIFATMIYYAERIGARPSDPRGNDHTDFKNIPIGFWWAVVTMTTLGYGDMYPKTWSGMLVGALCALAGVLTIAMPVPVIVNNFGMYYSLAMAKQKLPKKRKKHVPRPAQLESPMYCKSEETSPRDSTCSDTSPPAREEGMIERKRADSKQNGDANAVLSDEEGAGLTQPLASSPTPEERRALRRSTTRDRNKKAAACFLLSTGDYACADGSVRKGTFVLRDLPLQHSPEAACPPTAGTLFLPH
T1 sequence (Q9Y6H6 1-103 partner): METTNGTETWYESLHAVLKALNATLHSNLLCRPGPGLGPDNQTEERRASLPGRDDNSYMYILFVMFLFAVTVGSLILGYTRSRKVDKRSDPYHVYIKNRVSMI
Assay: Whole-cell patch clamp of Kv3.4 currents in CHO cells transiently transfected with Kv3.4/MiRP2
Assay type: cell-based
Conditions: for percentage of inhibition of Kv3.4 currents: acute application in extracellular solution, peak of depolarizing pulse +60 mV, [(C0-C1)/C0] x 100, mean of 6 to 10 cells, three sessions
Protocol: KV3.4 and MiRP2 channel subunits were expressed in Chinese hamster ovary (CHO) cells by transient transfection. CHO cells were grown in 100 mm plastic Petri dishes in Dulbecco's Modified Eagle Medium containing 10% fetal bovine serum (FBS), non-essential amino acids (0.1 mm), penicillin (50 U/ml), and streptomycin (50 μg/ml) in a humidified atmosphere at 37°C with 5% CO2 (Miceli et al., [2015]). KV3.4 and MiRP2 cDNAs were kindly provided by the Professor Goldstein of the Department of Pediatrics and Institute for Molecular Pediatric Sciences, University of Chicago, USA. For electrophysiological experiments, cells were seeded on glass cover-slips (Glaswarenfabrik Karl Hecht KG, Sondheim, Germany) coated with poly-L-lysine (50 μg/mL) and transfected the next day with the appropriate cDNAs using Lipofectamine 2000 according to guidelines for transfection. We performed electrophysiological experiments 48 h after transfection.
Currents from CHO cells were recorded at room temperature 1-2 days after transfection. The extracellular solution contained the following (in mM): 138 NaCl, 5.4 KCl, 2 CaCl2, 1 MgCl2, 10 glucose and 10 HEPES, adjusted pH 7.4 with NaOH. The pipette solution contained (in mM) the following: 140 KCl, 2 MgCl2, 10 EGTA, 10 HEPES, 5 Mg-ATP, adjusted pH 7.4 with KOH (Miceli et al., [2015]). KV3.4 currents were measured by applying voltage steps from −100 mV to +60 mV from a holding potential of −80 mV (Abbott et al., [2001]). Moreover, the total outward K^+ currents were recorded in NGF-differentiated PC-12 cells using the extracellular solution contained the following (in mM): 150 NaCl, 5.4 KCl, 3 CaCl2, 1 MgCl2, 10 HEPES, adjusted pH 7.4 with NaOH. The pipette solution contained the following (in mM): 140 KCl, 2 MgCl2, 10 HEPES, 10 glucose, 10 EGTA, and 1 Mg-ATP adjusted at pH 7.4 with KOH (Diochot et al., [1998]). All experiments were performed in the presence of 50 nM tetrodotoxin (TTX) and 10 μ M nimodipine in the extracellular solution. To discriminate K^+ current components appropriate electrophysiological protocols were used (Pannaccione et al., [2007]). Steady-state activation and inactivation properties were measured by using appropriate protocols (Pannaccione et al., [2005]). Capacitive currents were elicited by 5-mV depolarizing pulses from −80 mV and acquired at a sampling rate of 50 kHz. The capacitance of the membrane was calculated according to the following equation: Cm = τc·Io/ΔEm (1-I∞/Io), where Cm is membrane capacitance, τc is the time constant of the membrane capacitance, Io is the maximum capacitance current value, ΔEm is the amplitude of the voltage step, and I∞ is the amplitude of the steady-state current. K^+ currents were recorded by patch-clamp technique in CHO and NGF-differentiated PC-12 cells using a commercially available amplifier (Axopatch 200B, Molecular Devices) and Digidata 1322A interface (Molecular Devices, USA). The whole-cell configuration of the patch-clamp technique was adopted using glass micropipettes with a resistance of 2.5-5.0 MΩ. Data were acquired and analyzed using the pClamp software (version 9, Molecular Devices).
For the acute treatment, each peptide has been added in the extracellular solution. For each cell, we first recorded K^+ currents as previously described, in the absence of peptides. After that, we switched from the extracellular solution without BDS-I peptides to the extracellular solution containing the BDS-I peptide. In these conditions, we recorded K^+ currents until the steady-state was reached. This protocol has been performed to test the effect on KV3.4 currents of each BDS-I fragment as well as of BDS-I[1-8scr].
To identify the smallest BDS-I amino acid sequence able to block Kv3.4 activity, we evaluated the effect of the newly synthesized BDS-I fragments in CHO cells transiently transfected with Kv3.4/MiRP2, by patch clamp technique in whole cell configuration. […]

[1] = peptide 100 nM, CHO cells transfected with Kv3.4/MiRP2

| Substance | effect on steady-state parameters for activation and inactivation of Kv3.4 currents (100 nM, Boltzmann fit) | time of peptide exposure at which steady-state of inhibition was reached (100 nM, currents at peak of repetitive (20 sec) depolarizing pulses (+60 mV)) | voltage dependence of Kv3.4 current inhibition (I-V relationship) (100 nM, peak current before and during application, pulses from +60 to −100 mV) | IC50 (CHO cells transiently transfected with KV3.4/MiRP2, inhibitory dose-response curve, % of inhibition normalized to controls) | percentage of inhibition of Kv3.4 currents [1] | ability to inhibit Kv3.4 currents (in words) (peptide 100 nM, acute application, CHO cells transfected with Kv3.4/MiRP2, whole-cell patch clamp) |
| --- | --- | --- | --- | --- | --- | --- |
| AAPAFASG [BDS-I[1-8]] | did not modify | 150 s | not voltage-dependent | 75 nM | more than 80% | – |
| H-GSAFAPAA-OH [BDS-I[1-8scr]] | – | – | – | – | – | not able to modify KV3.4 activity |
| blood depressing substance-I [BDS-I] | – | – | – | – | ~ 60% | – |
